Patent US4220755A, “Fortimicin B derivatives and process for production thereof” (Abbott Laboratories, priority 1976, dated 1980)
≈ marks a conversion by molar mass, not a printed value.

What was measured:
Bacillus subtilis KY4273 = assay: MIC, agar dilution method, pH 8.0; type: cell-based; settings: pH 8.0; Bacillus subtilis KY4273; read-out: Minimum inhibition concentration (MIC), BS
Description: (§1) Measurement was carried out according to the agar dilution method, using a medium of pH 8.0, or the Japanese Antibiotic Medicament Standard, using a medium of pH 7.2 Units are in mcg/ml.
B.S.: Bacillus subtilis KY4273

[1] = system: Staphylococcus aureus KY4279 ATCC6538P; assay: MIC, agar dilution method, pH 8.0; type: cell-based; settings: pH 8.0, Staphylococcus aureus KY4279, read-out: Minimum inhibition concentration (MIC), SA
Description: as §1
S.A.: Staphylococcus aureus KY4279 ATCC6538P

[2] = system: Shigella sonnei KY4281 ATCC9290; assay: MIC, agar dilution method, pH 8.0; type: cell-based; settings: ATCC9290; pH 8.0; Shigella sonnei KY4281; read-out: Minimum inhibition concentration (MIC), SS
Description: as §1

[3] = system: Proteus vulgaris KY4277 ATCC6897; assay: MIC, agar dilution method, pH 8.0; type: cell-based; settings: ATCC6897; pH 8.0; Proteus vulgaris KY4277; read-out: Minimum inhibition concentration (MIC), PV
Description: as §1

[4] = system: Eschericia coli KY4271 ATCC26; assay: MIC, agar dilution method, pH 8.0; type: cell-based; settings: Escherichia coli, ATCC26; pH 8.0; E. coli KY4271; read-out: Minimum inhibition concentration (MIC), EC
Description: as §1
E.C.: Eschericia coli KY4271 ATCC26

[5] = system: Klebsiella pneumoniae KY4275 ATCC10031; assay: MIC, agar dilution method, pH 8.0; type: cell-based; settings: ATCC10031; pH 8.0; Klebsiella pneumoniae KY4275; read-out: Minimum inhibition concentration (MIC), KP
Description: as §1
K.P.: Klebsiella pneumoniae KY4275 ATCC10031.

[6] = system: Salmonella typhosa KY4278 ATCC9992; assay: MIC, agar dilution method, pH 8.0; type: cell-based; settings: Salmonella enterica, pH 8, read-out: Minimum inhibition concentration (MIC), ST
Description: as §1
S.T.: Salmonella typhosa KY4278 ATCC9992

[7] = system: Pseudomonas aeruginosa BMH# 1; assay: MIC, agar dilution method, pH 7.2; type: cell-based; settings: Pseudomonas aeruginosa, pH 7.2, read-out: Minimum inhibition concentration (MIC)
Description: as §1

Shigella sonnei ATCC9290 = assay: MIC, agar dilution method, pH 7.2; type: cell-based; settings: read-out: Minimum inhibition concentration (MIC)
Description: as §1

[8] = system: Eschericihia coli GN2411-5; assay: MIC, agar dilution method, pH 7.2; type: cell-based; settings: Escherichia coli, GN2411, pH 7.2, read-out: Minimum inhibition concentration (MIC)
Description: as §1

Escherichia coli NIHTC-2 = assay: MIC, agar dilution method, pH 7.2; type: cell-based; settings: Escherichia coli, NIHTC2, pH 7.2, read-out: Minimum inhibition concentration (MIC)
Description: as §1

[9] = system: Pseudomonas aeruginosa UCLA 4184; assay: MIC, agar dilution method, pH 7.2; type: cell-based; settings: Pseudomonas aeruginosa, UCLA4184, pH 7.2, read-out: Minimum inhibition concentration (MIC)
Description: as §1

[10] = system: Staphylococcus aureus Smith (A); assay: MIC, agar dilution method, pH 7.2; type: cell-based; settings: Staphylococcus aureus, pH 7.2, read-out: Minimum inhibition concentration (MIC)
Description: as §1

[11] = system: Staphylococcus aureus 209-P; assay: MIC, agar dilution method, pH 7.2; type: cell-based; settings: Staphylococcus aureus, 209P, pH 7.2, read-out: Minimum inhibition concentration (MIC)
Description: as §1

[12] = system: Klebsiella pneumoniae KY4274; assay: MIC, agar dilution method, pH 7.2; type: cell-based; settings: Klebsiella pneumoniae, KY4274, pH 7.2, read-out: Minimum inhibition concentration (MIC)
Description: as §1

[13] = system: Salmonella enteritidis G-14; assay: MIC, agar dilution method, pH 7.2; type: cell-based; settings: Salmonella enterica, ENTERITIDIS, pH 7.2, read-out: Minimum inhibition concentration (MIC)
Description: as §1

Proteus vulgaris JJ = assay: MIC, agar dilution method, pH 7.2; type: cell-based; settings: Proteus vulgaris, pH 7.2, read-out: Minimum inhibition concentration (MIC)
Description: as §1

[14] = system: Escherichia coli R20 KY8349; assay: MIC, agar dilution method, pH 7.2; type: cell-based; settings: R20KY8349, pH 7.2, E. coli R20 KY8349, 5**: neomycin, producing phosphotransferase type I, read-out: Minimum inhibition concentration (MIC)
Description: as §1
5: neomycin, producing phosphotransferase type I.

[15] = system: Klebsiella pneumoniae 3020 Y-60; assay: MIC, agar dilution method, pH 7.2; type: cell-based; settings: Klebsiella pneumoniae, 3020Y60, pH 7.2, read-out: Minimum inhibition concentration (MIC)
Description: as §1
(§2) **1: gentamicin, producing adenylsynthetase.

[16] = system: Escherichia coli 57R/W677; assay: MIC, agar dilution method, pH 7.2; type: cell-based; settings: 57R/W677, pH 7.2, read-out: Minimum inhibition concentration (MIC)
Description: as §1, §2

Escherichia coli 76-2 = assay: MIC, agar dilution method, pH 7.2; type: cell-based; settings: Escherichia coli, 762; pH 7.2; E. coli 76-2; 1**: gentamicin, producing adenylsynthetase; read-out: Minimum inhibition concentration (MIC)
Description: as §1, §2

[17] = system: Escherichia coli R12 Z-338; assay: MIC, agar dilution method, pH 7.2; type: cell-based; settings: R12Z338, pH 7.2, E. coli R12 Z-338, 1**: gentamicin, producing adenylsynthetase, read-out: Minimum inhibition concentration (MIC)
Description: as §1, §2

[18] = system: Pseudomonas aeruginosa R4 KY8511; assay: MIC, agar dilution method, pH 7.2; type: cell-based; settings: R4KY8511, pH 7.2, read-out: Minimum inhibition concentration (MIC)
Description: as §1
(§3) 4: gentamicin, producing acetyltransferase type I.

[19] = system: Escherichia coli R19 KY8348; assay: MIC, agar dilution method, pH 7.2; type: cell-based; settings: R19KY8348, pH 7.2, read-out: Minimum inhibition concentration (MIC)
Description: as §1, §3

[20] = system: Escherichia coli R18 KY8321; assay: MIC, agar dilution method, pH 7.2; type: cell-based; settings: R18KY8321, E. coli R18 KY8321, 2**: gentamicin, producing adenylsynthetase and neomycin phosphotransferase type II, read-out: Minimum inhibition concentration (MIC)
Description: as §1
2: gentamicin, producing adenylsynthetase and neomycin phosphotransferase

[21] = system: Pseudomonas aeruginosa R9 KY8516; assay: MIC, agar dilution method, pH 7.2; type: cell-based; settings: R9KY8516, pH 7.2, read-out: Minimum inhibition concentration (MIC)
Description: as §1
(§4) 3: kanamycin, producing acetyltransferase.

Serratia marcescens 1065 = assay: MIC, agar dilution method, pH 7.2; type: cell-based; settings: Serratia marcescens, 1065, pH 7.2, read-out: Minimum inhibition concentration (MIC)
Description: as §1, §4

[22] = system: Escherichia coli R17 Z343; assay: MIC, agar dilution method, pH 7.2; type: cell-based; settings: R17Z343, pH 7.2, E. coli R17 Z343, 3**: kanamycin, producing acetyltransferase, read-out: Minimum inhibition concentration (MIC)
Description: as §1, §4

[23] = system: Pseudomonas aeruginosa R5 KY8512; assay: MIC, agar dilution method, pH 7.2; type: cell-based; settings: R5KY8512, pH 7.2, read-out: Minimum inhibition concentration (MIC)
Description: as §1
6: neomycin, producing phosphotransferase type I and type II.

Eschericihia coli 3100 = assay: MIC, agar dilution method, pH 7.2; type: cell-based, Escherichia coli; settings: Escherichia coli, 3100, pH 7.2, read-out: Minimum inhibition concentration (MIC)
Description: as §1

Providencia sp 164 = assay: MIC, agar dilution method, pH 7.2; type: cell-based; settings: pH 7.2; Providencia sp 164; 7**: gentamicin, producing acetyltransferase type II; read-out: Minimum inhibition concentration (MIC)
Description: as §1
7: gentamicin, producing acetyltransferase type II.

[24] = system: Staphylococcus a ureus 226; assay: MIC, agar dilution method, pH 7.2; type: cell-based, Staphylococcus aureus; settings: pH 7.2, read-out: Minimum inhibition concentration (MIC)
Description: as §1

CNC[C@H](O)CN(C)[C@H]1[C@@H](O)[C@H](O[C@H]2O[C@H]([C@H](C)N)CC[C@H]2N)[C@@H](N)[C@H](O)[C@@H]1OC [Compound 32, 4-N-[(S)-3-methylamino-2-hydroxypropyl]fortimicin B]
MIC (Bacillus subtilis KY4273): 0.63 µg/mL (≈ 1.45 µM) | MIC [1]: 0.16 µg/mL (≈ 0.367 µM) | MIC [2]: 2.5 µg/mL (≈ 5.74 µM) | MIC [3]: 2.5 µg/mL (≈ 5.74 µM) | MIC [4]: 2.5 µg/mL (≈ 5.74 µM) | MIC [5]: 5 µg/mL (≈ 11.5 µM) | MIC [6]: 0.63 µg/mL (≈ 1.45 µM)

NC[C@H]1O[C@H](O[C@H]2[C@H](O)[C@@H](O[C@H]3O[C@H](CO)[C@@H](O)[C@H](N)[C@H]3O)[C@H](N)C[C@@H]2N)[C@H](O)[C@@H](O)[C@@H]1O [KA, kanamycin A, reference compound]
MIC [7]: 25 µg/mL (≈ 51.6 µM) | MIC (Shigella sonnei ATCC9290): 3.12 µg/mL (≈ 6.44 µM) | MIC [8]: 3.12 µg/mL (≈ 6.44 µM) | MIC (Escherichia coli NIHTC-2): 1.56 µg/mL (≈ 3.22 µM) | MIC [9]: > 100 µg/mL | MIC [10]: 0.4 µg/mL (≈ 0.826 µM) | MIC [11]: 0.4 µg/mL (≈ 0.826 µM) | MIC [12]: > 100 µg/mL | MIC [13]: 3.12 µg/mL (≈ 6.44 µM) | MIC (Proteus vulgaris JJ): 1.56 µg/mL (≈ 3.22 µM) | MIC [14]: > 100 µg/mL | MIC [15]: > 100 µg/mL | MIC [16]: > 100 µg/mL | MIC (Escherichia coli 76-2): > 100 µg/mL | MIC [17]: 100 µg/mL (≈ 206 µM) | MIC [18]: 100 µg/mL (≈ 206 µM) | MIC [19]: 1.56 µg/mL (≈ 3.22 µM) | MIC [20]: > 100 µg/mL | MIC [21]: > 100 µg/mL | MIC (Serratia marcescens 1065): 100 µg/mL (≈ 206 µM) | MIC [22]: 12.5 µg/mL (≈ 25.8 µM) | MIC [23]: > 100 µg/mL | MIC (Eschericihia coli 3100): 3.12 µg/mL (≈ 6.44 µM) | MIC (Providencia sp 164): > 100 µg/mL | MIC [24]: 0.78 µg/mL (≈ 1.61 µM)
